Data from patent US20100009907A1, “Glucagon-Like Peptides and Uses Thereof” (AMYLIN PHARMACEUTICALS, INC., priority 2006, published 2010).
Where no end group is shown, it is not given here.

Key:
[1] = Acute food intake assay (FI Assay); assay type: in vivo, NIH/Swiss mice; details: 1000 μg/kg intraperitoneal, relative to vehicle
Procedure: The effect of various test peptides on food intake is investigated using an acute food intake assay. This assay measures food consumption in lean, group-housed, overnight-fasted NIH/Swiss mice. Twelve mice are housed three to a cage. […] Decreased, as well as increased, food intake is measured. Testing of the various doses of the polypeptide generates ED50s.
Female NIH/Swiss mice (8-24 weeks old) are group housed with a 12:12 hour light:dark cycle with lights on at 0600. Water and a standard pelleted mouse chow diet are available ad libitum, except as noted. Animals are fasted starting at approximately 1500 hrs, 1 day prior to experiment. The morning of the experiment, animals are divided into experimental groups.
At time=0 min, all animals are given an intraperitoneal injection of vehicle or compound in an amount ranging from about 63 to 1000 μg/kg, and immediately given a pre-weighed amount (10-15 g) of the standard chow.

[2] = target: T1, rat thyroid carcinoma 6-23 clone 6 cells expressing endogenous GLP-1 receptors (Rattus norvegicus, UniProt P32301); assay: GLP-1 cAMP (6-23) cyclase assay; assay type: cell-based
T1 construct: rat thyroid carcinoma 6-23 clone 6 cells or RINm5F insulinoma cells expressing endogenous GLP-1 receptors; endogenous in cells; host or cells: rat thyroid carcinoma 6-23 clone 6 cells
T1 sequence (P32301 22-463): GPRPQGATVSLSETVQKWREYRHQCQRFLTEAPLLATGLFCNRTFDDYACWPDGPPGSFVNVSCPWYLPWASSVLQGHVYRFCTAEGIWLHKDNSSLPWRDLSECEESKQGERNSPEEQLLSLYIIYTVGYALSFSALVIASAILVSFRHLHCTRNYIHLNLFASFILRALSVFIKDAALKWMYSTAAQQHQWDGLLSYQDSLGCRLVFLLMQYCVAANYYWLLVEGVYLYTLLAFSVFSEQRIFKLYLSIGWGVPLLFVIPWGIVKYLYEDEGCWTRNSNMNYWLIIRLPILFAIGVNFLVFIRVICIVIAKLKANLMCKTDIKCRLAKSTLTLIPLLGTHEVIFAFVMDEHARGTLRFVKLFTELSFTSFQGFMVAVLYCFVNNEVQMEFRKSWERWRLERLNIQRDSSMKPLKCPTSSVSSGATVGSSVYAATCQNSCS
Procedure: (§1) Cells, and peptide or buffer solutions are combined in 384-well plates and incubated at room temperature in air for 30-minutes. cAMP content can then be measured according to recommendations in the Perkin-Elmer AlphaScreen™ kit instructions using the Perkin Elmer Fusion fluorimeter and data are analyzed using XLfit software (IDBS).

[3] = target: T2, GLP-1 receptor (RINm5F cell membranes) (Rattus norvegicus, UniProt P32301); assay: GLP-1 receptor binding assay (GLP RBA), [125I]GLP-1 displacement; details: [125I]GLP-1 tracer
T2 construct: RINm5F insulinoma cells expressing endogenous GLP-1 receptors; endogenous in cells; host or cells: RINm5F cell membranes
T2 sequence (P32301 22-463): T1 sequence (P32301 22-463)
Procedure: Reaction mixtures are filtered through glass filter pads presoaked with 0.3% PEI solution and rinsed with ice-cold phosphate buffered saline. Bound counts are determined using a scintillation counter. Binding affinities are calculated using GraphPad Prism software (GraphPad Software, Inc., San Diego, Calif.).

[4] = target: T3, RINm5f cells expressing endogenous GLP-1, calcitonin, and GIP receptors (Rattus norvegicus, UniProt P32301); assay: GLP/GIP/CT cAMP (RIN) assay; assay type: cell-based
T3 construct: RINm5f cells expressing endogenous GLP-1, calcitonin, and GIP receptors; endogenous in cells; host or cells: RINm5f cells
T3 sequence (P32301 22-463): T1 sequence (P32301 22-463)
Procedure: In addition, receptor binding can be measured using cells prepared from confluent cultures of RINm5f cells expressing endogenous GLP-1, calcitonin, and GIP receptors. Cells, and peptide or buffer solution are combined in 384-well plates. After a 30-minute incubation at room temperature in air, cAMP content is measured as recommended in the Perkin-Elmer AlphaScreen kit instructions.
as §1

DPP-IV = DPP-IV (Homo sapiens, UniProt P27487); assay: Stability by DPP IV assay; assay type: in vitro ADME; details: isolated DPP-IV enzyme, DPP-IV approximately 5 mUnit, 37° C., intact peptide remaining, read-out: DDP IV % Stable
Sequence of DPP-IV (P27487 whole entry, species assumed): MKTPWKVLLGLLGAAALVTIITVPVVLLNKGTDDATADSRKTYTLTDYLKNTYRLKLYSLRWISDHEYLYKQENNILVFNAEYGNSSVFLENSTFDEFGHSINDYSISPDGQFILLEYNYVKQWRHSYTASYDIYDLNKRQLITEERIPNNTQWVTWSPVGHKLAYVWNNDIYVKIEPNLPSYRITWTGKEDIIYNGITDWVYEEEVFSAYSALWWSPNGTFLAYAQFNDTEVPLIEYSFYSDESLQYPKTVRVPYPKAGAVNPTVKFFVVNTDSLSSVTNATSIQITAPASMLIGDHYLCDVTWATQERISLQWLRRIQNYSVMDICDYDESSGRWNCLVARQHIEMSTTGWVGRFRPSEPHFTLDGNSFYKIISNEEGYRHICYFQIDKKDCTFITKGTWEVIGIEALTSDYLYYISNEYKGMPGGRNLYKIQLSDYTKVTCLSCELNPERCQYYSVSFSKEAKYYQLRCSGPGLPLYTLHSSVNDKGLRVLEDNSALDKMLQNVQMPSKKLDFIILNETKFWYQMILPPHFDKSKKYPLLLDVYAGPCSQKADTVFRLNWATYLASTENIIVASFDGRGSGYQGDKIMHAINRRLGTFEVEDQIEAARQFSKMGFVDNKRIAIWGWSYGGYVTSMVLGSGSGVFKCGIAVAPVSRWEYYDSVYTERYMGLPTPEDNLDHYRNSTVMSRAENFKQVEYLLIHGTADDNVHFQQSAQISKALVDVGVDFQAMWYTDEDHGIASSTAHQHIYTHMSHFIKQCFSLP
Procedure: DPP-IV, approximately 5 mUnit in 5 mM Tris-HCl was added to 625 μL HEPES buffer (25 mM) in a 1.5 mL polypropylene microcentrifuge tube with an O-ring seal to prevent evaporation. Peptide stock solution, 70 μL (300 μM in 50% acetonitrile) was carefully added to this and mixed by brief manual shaking. Next, the solution was aliquoted into six tubes (6×100 μl. One tube contained 200 μL Stop solution (50% acetonitrile and 1% formic acid) that was used to determine the initial concentration of peptide (t=0). All six aliquots were then incubated at 37° C. while mixing at 500 RPM in the Vortemp 56 incubator. The digestion was stopped at 10 min intervals by adding 200 μL stop solution. The tube was then placed back into the incubator for 50 min. The solution was centrifuged at 19000×g for 10 minutes at room temperature. The supernatant was removed and 200 μL supernatant was transferred to an autosampler vials for analysis.
The most intense ion of the intact peptide was monitored to determine the rates of degradation and to quantify the amount of intact peptide remaining in the solution.

CC[C@H](C)[C@H](NC(=O)[C@H](Cc1ccccc1)NC(=O)[C@H](CCC(=O)O)NC(=O)[C@H](CCCCN)NC(=O)[C@H](C)NC(=O)[C@H](C)NC(=O)[C@H](CCC(N)=O)NC(=O)CNC(=O)[C@H](CCC(=O)O)NC(=O)[C@H](CC(C)C)NC(=O)[C@H](Cc1ccc(O)cc1)NC(=O)[C@H](CO)NC(=O)[C@H](CO)NC(=O)[C@@H](NC(=O)[C@H](CC(=O)O)NC(=O)[C@H](CO)NC(=O)[C@@H](NC(=O)[C@H](Cc1ccccc1)NC(=O)[C@@H](NC(=O)CNC(=O)[C@H](CCC(=O)O)NC(=O)[C@H](C)NC(=O)[C@@H](N)Cc1c[nH]cn1)[C@@H](C)O)[C@@H](C)O)C(C)C)C(=O)N[C@@H](C)C(=O)N[C@@H](Cc1c[nH]c2ccccc12)C(=O)N[C@@H](CC(C)C)C(=O)N[C@H](C(=O)N[C@@H](CCCCN)C(=O)NCC(=O)N[C@@H](CCCNC(=N)N)C(N)=O)C(C)C [compound 3]
Food Intake % inhibition 30 min [1]: 13% | Food Intake % inhibition 60 min [1]: 13% | Food Intake % inhibition 120 min [1]: 11%

HAEFTYTNDVTEYLEEKAAKEFIEWLIKGGPSSGAPPPS-NH2 [compound 19]
Food Intake % inhibition 30 min [1]: 51% | Food Intake % inhibition 60 min [1]: 67% | Food Intake % inhibition 120 min [1]: 75% | Food Intake % inhibition 180 min [1]: 77%

CC[C@H](C)[C@H](NC(=O)[C@H](CC(C)C)NC(=O)[C@H](Cc1c[nH]c2ccccc12)NC(=O)[C@H](CCC(=O)O)NC(=O)[C@@H](NC(=O)[C@H](Cc1ccccc1)NC(=O)[C@H](CCC(=O)O)NC(=O)[C@H](CCCCN)NC(=O)[C@H](C)NC(=O)[C@H](C)NC(=O)[C@H](CCCCN)NC(=O)[C@H](CCC(=O)O)NC(=O)[C@H](CCC(=O)O)NC(=O)[C@H](CC(C)C)NC(=O)[C@H](Cc1ccc(O)cc1)NC(=O)[C@H](CCC(=O)O)NC(=O)[C@@H](NC(=O)[C@@H](NC(=O)[C@H](CC(=O)O)NC(=O)[C@H](CC(N)=O)NC(=O)[C@@H](NC(=O)[C@H](Cc1ccc(O)cc1)NC(=O)[C@@H](NC(=O)CNC(=O)[C@H](CCC(=O)O)NC(=O)[C@H](C)NC(=O)[C@@H](N)Cc1c[nH]cn1)[C@@H](C)O)[C@@H](C)O)C(C)C)[C@@H](C)O)[C@@H](C)CC)C(N)=O [compound 42]
EC50 [2]: 0.22 nM

CC[C@H](C)[C@H](NC(=O)[C@H](CC(C)C)NC(=O)[C@H](Cc1c[nH]c2ccccc12)NC(=O)[C@H](CC(=O)O)NC(=O)[C@@H](NC(=O)[C@H](Cc1ccccc1)NC(=O)[C@H](CCC(=O)O)NC(=O)[C@H](CCCCN)NC(=O)[C@H](C)NC(=O)[C@H](C)NC(=O)[C@H](CCCCN)NC(=O)[C@H](CCC(=O)O)NC(=O)[C@H](CC(=O)O)NC(=O)[C@H](CC(C)C)NC(=O)[C@H](CCC(N)=O)NC(=O)[C@H](CCC(N)=O)NC(=O)[C@@H](NC(=O)[C@@H](NC(=O)[C@H](CC(=O)O)NC(=O)[C@H](CO)NC(=O)[C@@H](NC(=O)[C@H](Cc1ccccc1)NC(=O)[C@@H](NC(=O)CNC(=O)[C@H](CCC(=O)O)NC(=O)[C@H](C)NC(=O)[C@@H](N)Cc1c[nH]cn1)[C@@H](C)O)[C@@H](C)O)C(C)C)[C@@H](C)O)[C@@H](C)CC)C(=O)N[C@@H](CC(N)=O)C(=O)NCC(=O)NCC(=O)N1CCC[C@H]1C(=O)N[C@@H](CO)C(=O)N[C@@H](CCCCN)C(=O)N[C@@H](CCC(=O)O)C(=O)N[C@H](C(=O)N[C@H](C(=O)N[C@@H](CO)C(=O)O)[C@@H](C)CC)[C@@H](C)CC [compound 1]
IC50 [3]: 3 nM | GLP/GIP/CT cAMP(RIN) EC50 [4]: 1.9 nM | Food Intake % inhibition 30 min [1]: 56% | Food Intake % inhibition 60 min [1]: 69% | Food Intake % inhibition 120 min [1]: 73% | Food Intake % inhibition 180 min [1]: 72% | remaining at 50 min, 30 µM (DPP-IV): 99%

HAEGTYTNDTEYLEEKAAKEFIEWLIKGKPKKIRYS-NH2 (C-terminus assumed) [compound 39]
EC50 [2]: > 1000 nM

HAEGTYTNDVTEYLEEAAKEFIEWLIKGKPKKIRYS-NH2 (C-terminus assumed) [compound 30]
EC50 [2]: > 1000 nM

EGTYTNDVTEYLEEKAAKEFIEWLIKGKPKKIRYS-NH2 (C-terminus assumed) [compound 37]
IC50 [3]: 22 nM | EC50 [2]: > 1000 nM
